Experimental data reported in patent US9376418B2, “Substituted pyridine spleen tyrosine kinase (SYK) inhibitors” (Merck Sharp & Dohme Corp., priority 2012, dated 2016).

molecular target: T1, recombinant human GST-SYK (Homo sapiens, UniProt P43405); experiment: Homogeneous Time-Resolved Fluorescence (HTRF) assay for the recombinant human Syk enzyme; assay type: biochemical; details: HTRF assay, recombinant human GST-SYK; IC50 given as class symbols; read-out: rhSYK Activity
T1 construct: purchased Carna Biosciences 08-176
Summary of the method: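 Enzyme […], pH 7.5 Tris/tween/DTT buffer; 10 min preincubation with compound, RT. Start: 250 nM biotin-peptide, 25 μM ATP, 5 mM Mg; 45′ RT. Stop/detect: 40 mM EDTA, Eu-anti-pTyr, SA-APC; read 30 min later.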

Row | SMILES | IC50 [nM]
1 | CCOC(=O)CCc1ccnc(-c2cc(C)cc(Nc3nccc(C4CC4)n3)c2)c1 [Example 2.39, ethyl 3-(2-{3-[(4-cyclopropylpyrimidin-2-yl)amino]-5-methylphenyl}pyridin-4-yl)propanoate] | 100 to 1000
2 | Cc1cc(Nc2nccc(C(F)(F)F)n2)cc(-c2ccc(NC3(C(=O)O)CC3)nc2)c1 [Example 7.81, 1-{[5-(3-methyl-5-{[4-(trifluoromethyl)pyrimidin-2-yl]amino}phenyl)pyridin-2-yl]amino}cyclopropanecarboxylic acid] | 100 to 1000
3 | Cc1cc(Nc2nccc(C(F)(F)F)n2)cc(-c2ccc(N3CCCCC3CC(=O)O)nc2)c1 (stereo not drawn) [Example 7.132, {1-[5-(3-methyl-5-{[4-(trifluoromethyl)pyrimidin-2-yl]amino}phenyl)pyridin-2-yl]piperidin-2-yl}acetic acid] | < 100
4 | Cc1cc(Nc2nccc(C(F)(F)F)n2)cc(-c2ccc(OC3CCC(C(=O)O)CC3)nc2)c1 (stereo not drawn) [Example 2.110, 4-{[5-(3-methyl-5-{[4-(trifluoromethyl)pyrimidin-2-yl]amino}phenyl)pyridin-2-yl]oxy}cyclohexanecarboxylic acid] | < 100
5 | Cc1cc(Nc2nccc(C(F)(F)F)n2)cc(-c2ccc(NC3CCNC3=O)nc2)c1 (stereo not drawn) [Example 7.157, 3-{[5-(3-methyl-5-{[4-(trifluoromethyl)pyrimidin-2-yl]amino}phenyl)pyridin-2-yl]amino}pyrrolidin-2-one] | < 100
6 | Cc1cc(Nc2nccc(C(F)(F)F)n2)cc(-c2ccnc(C3(O)CCC3)c2)c1 [Example 9.60, 1-[4-(3-methyl-5-{[4-(trifluoromethyl)pyrimidin-2-yl]amino}phenyl)pyridin-2-yl]cyclobutanol] | < 100
7 | CCNC(=O)Nc1cc(Nc2nccc(C(F)(F)F)n2)cc(-c2cccnc2)c1 [Example 6.3, 1-ethyl-3-(3-pyridin-3-yl-5-{[4-(trifluoromethyl)pyrimidin-2-yl]amino}phenyl)urea] | < 100
8 | Cc1cc(Nc2nccc(C(F)(F)F)n2)cc(-c2ccc(C(O)(CO)CO)nc2)c1 [Example 9.33, 2-[5-(3-methyl-5-{[4-(trifluoromethyl)pyrimidin-2-yl]amino}phenyl)pyridin-2-yl]propane-1,2,3-triol] | < 100
9 | CS(=O)(=O)c1ccc(-c2cccc(Nc3nccc(C(F)(F)F)n3)c2)nc1 [Example 2.6, N-{3-[5-(methylsulfonyl)pyridin-2-yl]phenyl}-4-(trifluoromethyl)pyrimidin-2-amine] | 100 to 1000
10 | Cc1cc(Nc2nccc(C(F)(F)F)n2)cc(-c2ccc(N[C@@H](Cc3ccc(O)cc3)C(=O)O)nc2)c1 [Example 7.98, N-[5-(3-methyl-5-{[4-(trifluoromethyl)pyrimidin-2-yl]amino}phenyl)pyridin-2-yl]-L-tyrosine] | < 100
11 | Cc1cc(Nc2nccc(C(F)(F)F)n2)cc(-c2ccc(NCCCO)nc2)c1 [Example 7.113, 3-{[5-(3-methyl-5-{[4-(trifluoromethyl)pyrimidin-2-yl]amino}phenyl)pyridin-2-yl]amino}propan-1-ol] | < 100
12 | Cc1cc(Nc2ncc(Cl)c(C(F)(F)F)n2)cc(-c2cccnc2)c1 [Example 20.3] | 100 to 1000
13 | Cc1cc(Nc2nccc(C(F)(F)F)n2)cc(-c2ccnc(NCC(C)O)c2)c1 (stereo not drawn) [Example 15.72, 1-{[4-(3-methyl-5-{[4-(trifluoromethyl)pyrimidin-2-yl]amino}phenyl)pyridin-2-yl]amino}propan-2-ol] | < 100
14 | Cc1cc(Nc2nccc(C(F)(F)F)n2)cc(-c2ccc(NC3(C(=O)O)CCCC3)nc2)c1 [Example 7.80, 1-{[5-(3-methyl-5-{[4-(trifluoromethyl)pyrimidin-2-yl]amino}phenyl)pyridin-2-yl]amino}cyclopentanecarboxylic acid] | < 100
15 | CNC(=O)C1CCN(c2cc(-c3cc(C)cc(Nc4nccc(C(F)(F)F)n4)c3)ccn2)CC1 [Example 15.58, N-methyl-1-[4-(3-methyl-5-{[4-(trifluoromethyl)pyrimidin-2-yl]amino}phenyl)pyridin-2-yl]piperidine-4-carboxamide] | 100 to 1000
16 | COc1cccc(-c2cc(C)cc(Nc3nccc(C(F)(F)F)n3)c2)n1 [Example 4.9] | 100 to 1000
17 | O=C(O)[C@@H]1CCN1c1ccc(-c2cc(F)cc(Nc3nccc(C(F)(F)F)n3)c2)cn1 [Example 7.127, (2S)-1-[5-(3-fluoro-5-{[4-(trifluoromethyl)pyrimidin-2-yl]amino}phenyl)pyridin-2-yl]azetidine-2-carboxylic acid] | < 100
18 | CCC(C)(C#N)Nc1ccc(-c2cc(C)cc(Nc3nccc(C(F)(F)F)n3)c2)cn1 (stereo not drawn) [Example 18.1, 2-Methyl-2-{[5-(3-methyl-5-{[4-(trifluoromethyl)pyrimidin-2-yl]amino}phenyl)pyridin-2-yl]amino}butanenitrile] | < 100

Row | SMILES | IC50 [nM]
19 | Cc1cc(Nc2nccc(C(F)(F)F)n2)cc(-c2ccc(CCC#N)nc2)c1 [Example 13.1, 3-[5-(3-Methyl-5-{[4-(trifluoromethyl)pyrimidin-2-yl]amino}phenyl)pyridin-2-yl]propanenitrile] | < 100
20 | COc1cc(-c2cc(C)cc(Nc3nccc(C(F)(F)F)n3)c2)ccn1 [Example 4.10] | 100 to 1000
21 | CCOC(=O)C1CCC(O)(c2ccc(-c3cc(C)cc(Nc4nccc(C(F)(F)F)n4)c3)cn2)C1(C)C (stereo not drawn) [Example 9.47, ethyl 3-hydroxy-2,2-dimethyl-3-[5-(3-methyl-5-{[4-(trifluoromethyl)pyrimidin-2-yl]amino}phenyl)pyridin-2-yl]cyclopentanecarboxylate] | 1000 to 10000
22 | Cc1cc(Nc2nccc(C(F)(F)F)n2)cc(-c2ccc(N3CSCC3C(=O)O)nc2)c1 (stereo not drawn) [Example 7.137, 3-[5-(3-methyl-5-{[4-(trifluoromethyl)pyrimidin-2-yl]amino}phenyl)pyridin-2-yl]-1,3-thiazolidine-4-carboxylic acid] | < 100
23 | Cc1cc(Nc2nccc(C(F)(F)F)n2)cc(-c2ccc(-c3noc(=O)[nH]3)nc2)c1 [Example 18.11] | < 100
24 | Cc1cc(Nc2nccc(C(F)(F)F)n2)cc(-c2cncc([C@]3(O)CC[C@H](C(=O)O)CC3)c2)c1 [Example 9.70, trans-4-hydroxy-4-[5-(3-methyl-5-{[4-(trifluoromethyl)pyrimidin-2-yl]amino}phenyl)pyridin-3-yl]cyclohexanecarboxylic acid] | < 100
25 | Cc1cc(Nc2nccc(C(F)(F)F)n2)cc(-c2ccc(C(=O)N(CCO)CCO)nc2)c1 [Example 16.60, N,N-bis(2-hydroxyethyl)-5-(3-methyl-5-{[4-(trifluoromethyl)pyrimidin-2-yl]amino}phenyl)pyridine-2-carboxamide] | < 100
26 | Cc1cc(Nc2nccc(C(F)(F)F)n2)cc(-c2ccc([C@]3(O)CC[C@H](C(=O)O)CC3)nc2)c1 [Example 9.35, trans 4-hydroxy-4-[5-(3-methyl-5-{[4-(trifluoromethyl)pyrimidin-2-yl]amino}phenyl)pyridin-2-yl]cyclohexanecarboxylic acid] | < 100
27 | Cc1cc(Nc2nccc(C(F)(F)F)n2)cc(-c2ccc(N3CC(C)NC(C)C3)nc2)c1 (stereo not drawn) [Example 7.58, N-{3-[6-(3,5-dimethylpiperazin-1-yl)pyridin-3-yl]-5-methylphenyl}-4-(trifluoromethyl)pyrimidin-2-amine] | < 100
28 | Cc1cc(Nc2nccc(C(F)(F)F)n2)cc(-c2ccc(N[C@H](Cc3c[nH]c4ccccc34)C(=O)O)nc2)c1 [Example 7.99, N-[5-(3-methyl-5-{[4-(trifluoromethyl)pyrimidin-2-yl]amino}phenyl)pyridin-2-yl]-D-tryptophan] | < 100
29 | FC(F)(F)c1ccnc(Nc2cc(-c3cccc(N4CCOCC4)n3)cc(N3CCOCC3)c2)n1 [Example 1.3, N-[3-morpholin-4-yl-5-(6-morpholin-4-ylpyridin-2-yl)phenyl]-4-(trifluoromethyl)pyrimidin-2-amine] | < 100
30 | Cc1cc(Nc2nccc(C3CC3)n2)cc(-c2cc(CCC(=O)O)ccn2)c1 [Example 2.24, 3-(2-{3-[(4-cyclopropylpyrimidin-2-yl)amino]-5-methylphenyl}pyridin-4-yl)propanoic acid] | < 100
31 | Cc1cc(Nc2nccc(C(C)C)n2)cc(-c2ccc(N[C@H]3CC[C@H](C(=O)O)CC3)nc2)c1 [Example 2.108, trans-4-{[5-(3-methyl-5-{[4-(1-methylethyl)pyrimidin-2-yl]amino}phenyl)pyridin-2-yl]amino}cyclohexanecarboxylic acid] | < 100
32 | Cc1cc(Nc2nccc(C)n2)cc(-c2ccnc(CCC(=O)O)c2)c1 [Example 2.135, 3-(4-{3-methyl-5-[(4-methylpyrimidin-2-yl)amino]phenyl}pyridin-2-yl)propanoic acid] | < 100
33 | Cc1cc(Nc2nccc(C(F)(F)F)n2)cc(-c2ccc(C(=O)NCCS(N)(=O)=O)nc2)c1 [Example 16.50, 5-(3-methyl-5-{[4-(trifluoromethyl)pyrimidin-2-yl]amino}phenyl)-N-(2-sulfamoylethyl)pyridine-2-carboxamide] | < 100
34 | Cc1cc(Nc2nccc(C(F)(F)F)n2)cc(-c2ccc(N3CCN(CCCC(=O)O)CC3)nc2)c1 [Example 7.139, 4-{4-[5-(3-methyl-5-{[4-(trifluoromethyl)pyrimidin-2-yl]amino}phenyl)pyridin-2-yl]piperazin-1-yl}butanoic acid] | < 100
35 | CCOC(=O)CCc1ccc(-c2cc(C)cc(Nc3nccc(C4CC4)n3)c2)cn1 [Example 2.103, ethyl 3-(5-{3-[(4-cyclopropylpyrimidin-2-yl)amino]-5-methylphenyl}pyridin-2-yl)propanoate] | < 100
36 | CCN(C)C(=O)c1ccc(-c2cc(C)cc(Nc3nccc(C(F)(F)F)n3)c2)cn1 [Example 16.59, N-ethyl-N-methyl-5-(3-methyl-5-{[4-(trifluoromethyl)pyrimidin-2-yl]amino}phenyl)pyridine-2-carboxamide] | < 100
